In patent US10105357B2, “Indication of antibiotic drugs for preparation of cancer inhibition pharmaceutical composition” (LAUNX BIOMEDICAL CO., LTD., priority 2014, dated 2018):

Experiments:
[1] = system: HepG2 (Hepatocellular Carcinoma); experiment: Cell viability analysis, hepatic cancer HepG2; type: cell-based, human; settings: HepG2, repeated experiment
T24 = experiment: Cell viability analysis, bladder cancer T24; type: cell-based, human; settings: T24, repeated experiment
[2] = system: C-33A (Cervical carcinoma); experiment: Cell viability analysis, cervical cancer C-33A; type: cell-based, human; settings: C-33A, repeated experiment
[3] = system: BCC (basal cell carcinoma); experiment: Cell viability analysis, skin cancer BCC; type: cell-based, human; settings: BCC, repeated experiment
[4] = system: SAS (Tongue squamous cell carcinoma); experiment: Cell viability analysis, tongue cancer SAS; type: cell-based, human; settings: SAS, repeated experiment
TOV-21G = experiment: Cell viability analysis, ovarian cancer TOV-21G; type: cell-based, human; settings: TOV-21G, repeated experiment
[5] = system: PC3 (p53−) (Prostate Adenocarcinoma); experiment: Cell viability analysis, prostate cancer PC3; type: cell-based, human
[6] = system: MDA-MB-231 (Mammary Gland, Adenocarcinoma); experiment: Cell viability analysis, breast cancer MDA-MB-231; type: cell-based, human; settings: MDA-MB231, repeated experiment
[7] = system: HeLa (Cervix Adenocarcinoma); experiment: Cell viability analysis, cervical cancer HeLa; type: cell-based, human; settings: HeLa, repeated experiment
U-2OS = experiment: Cell viability analysis, osteosarcoma U-2OS; type: cell-based, human; settings: U2OS, repeated experiment
[8] = system: HCT116 (p53+) (Colorectal Carcinoma)
AsPC-1 = experiment: Cell viability analysis, pancreatic cancer AsPC-1; type: cell-based, human; settings: AsPC-1, repeated experiment
[9] = system: TSGH-8301 (Urinary Bladder Carcinoma); experiment: Cell viability analysis, bladder cancer TSGH-8301; type: cell-based, human; settings: TSGH-8301, repeated experiment
[10] = system: A375 (Amelanotic Melanoma); experiment: Cell viability analysis, skin cancer A375; type: cell-based, human; settings: A375, repeated experiment
[11] = system: A549 (Lung Adenocarcinoma); experiment: Cell viability analysis, lung cancer A549; type: cell-based, human; settings: A549; repeated experiment
[12] = system: MCF7 (Mammary Gland, Adenocarcinoma); experiment: Cell viability analysis, breast cancer MCF7; type: cell-based, human; settings: MCF-7, repeated experiment
NIH: OVCAR-3 = experiment: Cell viability analysis, ovarian cancer NIH: OVCAR-3; type: cell-based, human; settings: NIH-OVCAR-3, repeated experiment
[13] = system: 786-O (Renal adenocarcinoma); experiment: Cell viability analysis, renal cancer 786-O; type: cell-based, human; settings: 786-O, repeated experiment
[14] = system: AGS (Gastric Adenocarcinoma); experiment: Cell viability analysis, gastric cancer AGS; type: cell-based, human; settings: AGS, repeated experiment
[15] = system: LoVo (Colorectal Adenocarcinoma); experiment: Cell viability analysis, colon cancer LoVo; type: cell-based, human; settings: LoVo, repeated experiment
[16] = system: HI650 (Lung Adenocarcinoma); experiment: Cell viability analysis, lung cancer HI650; type: cell-based, human; settings: H1650, repeated experiment
[17] = system: MKN-45 (Gastric Adenocarcinoma); experiment: Cell viability analysis, gastric cancer MKN-45; type: cell-based, human
[18] = system: Hep3B (hepatocellular carcinoma); experiment: Cell viability analysis, hepatic cancer Hep3B; type: cell-based, human; settings: Hep3B, repeated experiment
BxPC-3 = experiment: Cell viability analysis, pancreatic cancer BxPC-3; type: cell-based, human; settings: BxPC-3, repeated experiment

COC(=O)Nc1nc2cc(C(=O)c3ccc(F)cc3)ccc2[nH]1 [Flubendazole (Flutelmium)]
The results of antibiotic drug inhibiting cancer cell lines (cell viability analysis), HepG2 [1]: 56.8
The results of antibiotic drug inhibiting cancer cell lines (cell viability analysis), T24 (T24): 34.67
The results of antibiotic drug inhibiting cancer cell lines (cell viability analysis), C-33A [2]: 46.4
The results of antibiotic drug inhibiting cancer cell lines (cell viability analysis), BCC [3]: 31.79
The results of antibiotic drug inhibiting cancer cell lines (cell viability analysis), SAS [4]: 45.16
The results of antibiotic drug inhibiting cancer cell lines (cell viability analysis), TOV-21G (TOV-21G): 24.84
The results of antibiotic drug inhibiting cancer cell lines (cell viability analysis), PC-3 [5]: 32.11
The results of antibiotic drug inhibiting cancer cell lines (cell viability analysis), MDA-MB231 [6]: 43.43
The results of antibiotic drug inhibiting cancer cell lines (cell viability analysis), HeLa [7]: 25.78
The results of antibiotic drug inhibiting cancer cell lines (cell viability analysis), U2OS (U-2OS): 48.74
The results of antibiotic drug inhibiting cancer cell lines (cell viability analysis), HCT116 [8]: 20.63
The results of antibiotic drug inhibiting cancer cell lines (cell viability analysis), AsPC-1 (AsPC-1): 35.53
The results of antibiotic drug inhibiting cancer cell lines (cell viability analysis), TSGH-8301 [9]: 45.64
The results of antibiotic drug inhibiting cancer cell lines (cell viability analysis), A375 [10]: 30.32
The results of antibiotic drug inhibiting cancer cell lines (cell viability analysis), A549 [11]: 22.71
The results of antibiotic drug inhibiting cancer cell lines (cell viability analysis), MCF-7 [12]: 55.01
The results of antibiotic drug inhibiting cancer cell lines (cell viability analysis), NIH-OVCAR-3 (NIH: OVCAR-3): 59.15
The results of antibiotic drug inhibiting cancer cell lines (cell viability analysis), 786-O [13]: 20.97
The results of antibiotic drug inhibiting cancer cell lines (cell viability analysis), AGS [14]: 28.25
The results of antibiotic drug inhibiting cancer cell lines (cell viability analysis), LoVo [15]: 53.35
The results of antibiotic drug inhibiting cancer cell lines (cell viability analysis), H1650 [16]: 35.69
The results of antibiotic drug inhibiting cancer cell lines (cell viability analysis), MKN-45 [17]: 63.06
The results of antibiotic drug inhibiting cancer cell lines (cell viability analysis), Hep3B [18]: 56.93
The results of antibiotic drug inhibiting cancer cell lines (cell viability analysis), BxPC-3 (BxPC-3): 32.76

CC[C@H](C)C(=O)O[C@H]1CCC=C2C=C[C@H](C)[C@H](CC[C@@H]3C[C@@H](O)CC(=O)O3)[C@H]21 [Mevastatin]
viability at 10 µM ([1]; Homo sapiens, HepG2, 72 h, read-out: The results of antibiotic drug inhibiting cancer cell lines (cell viability analysis), HepG2): 98.7%
viability at 10 µM (T24; Homo sapiens, T-24, 72 h, read-out: The results of antibiotic drug inhibiting cancer cell lines (cell viability analysis), T24): 67.5%
viability at 10 µM ([2]; Homo sapiens, 72 h, read-out: The results of antibiotic drug inhibiting cancer cell lines (cell viability analysis), C-33A): 102%
viability at 10 µM ([3]; Homo sapiens, 72 h, read-out: The results of antibiotic drug inhibiting cancer cell lines (cell viability analysis), BCC): 29.8%
viability at 10 µM ([4]; Homo sapiens, 72 h, read-out: The results of antibiotic drug inhibiting cancer cell lines (cell viability analysis), SAS): 81%
viability at 10 µM (TOV-21G; Homo sapiens, TOV21G, 72 h, read-out: The results of antibiotic drug inhibiting cancer cell lines (cell viability analysis), TOV-21G): 44.7%
viability at 10 µM ([5]; Homo sapiens, 72 h, PC-3, repeated experiment, read-out: The results of antibiotic drug inhibiting cancer cell lines (cell viability analysis), PC-3): 65.6%
viability at 10 µM ([6]; Homo sapiens, MDA-MB-231, 72 h, read-out: The results of antibiotic drug inhibiting cancer cell lines (cell viability analysis), MDA-MB231): 56.1%
viability at 10 µM ([7]; Homo sapiens, 72 h, read-out: The results of antibiotic drug inhibiting cancer cell lines (cell viability analysis), HeLa): 90.5%
viability at 10 µM (U-2OS; Homo sapiens, 72 h, read-out: The results of antibiotic drug inhibiting cancer cell lines (cell viability analysis), U2OS): 85.3%
viability [8]: 73.6%
viability at 10 µM (AsPC-1; Homo sapiens, ASPC1, 72 h, read-out: The results of antibiotic drug inhibiting cancer cell lines (cell viability analysis), AsPC-1): 72.3%
viability at 10 µM ([9]; Homo sapiens, 72 h, read-out: The results of antibiotic drug inhibiting cancer cell lines (cell viability analysis), TSGH-8301): 94.4%
viability at 10 µM ([10]; Homo sapiens, A-375, 72 h, read-out: The results of antibiotic drug inhibiting cancer cell lines (cell viability analysis), A375): 30.9%
viability at 10 µM ([12]; Homo sapiens, MCF7, 72 h, read-out: The results of antibiotic drug inhibiting cancer cell lines (cell viability analysis), MCF-7): 77.8%
viability at 10 µM (NIH: OVCAR-3; Homo sapiens, 72 h, read-out: The results of antibiotic drug inhibiting cancer cell lines (cell viability analysis), NIH-OVCAR-3): 100%
viability at 10 µM ([13]; Homo sapiens, 786-0, 72 h, read-out: The results of antibiotic drug inhibiting cancer cell lines (cell viability analysis), 786-O): 48%
viability at 10 µM ([14]; Homo sapiens, 72 h, read-out: The results of antibiotic drug inhibiting cancer cell lines (cell viability analysis), AGS): 71.2%
viability at 10 µM ([15]; Homo sapiens, 72 h, read-out: The results of antibiotic drug inhibiting cancer cell lines (cell viability analysis), LoVo): 90.5%
viability at 10 µM ([16]; Homo sapiens, NCI-H1650, 72 h, read-out: The results of antibiotic drug inhibiting cancer cell lines (cell viability analysis), H1650): 69.4%
viability at 10 µM ([17]; Homo sapiens, MKN-45, 72 h, MKN-45, repeated experiment, read-out: The results of antibiotic drug inhibiting cancer cell lines (cell viability analysis), MKN-45): 92.7%
viability at 10 µM ([18]; Homo sapiens, 72 h, read-out: The results of antibiotic drug inhibiting cancer cell lines (cell viability analysis), Hep3B): 97.7%
viability at 10 µM (BxPC-3; Homo sapiens, 72 h, read-out: The results of antibiotic drug inhibiting cancer cell lines (cell viability analysis), BxPC-3): 83.6%
